Several values for one entry are separate records, joined by “and”; a condition that tells them apart may be missing. Equal values may be shown once. One block for each compound: values may come before it.
Legend:
SphK1 [1] = target: T1, SphK1 (Homo sapiens, UniProt Q9NYA1); assay: ATPase inhibition assay (malachite green, BIOMOL Green); assay type: biochemical; settings: 2 µM SphK1, 150 µM ATP, 25 °C; read-out: IC50 (50% of ATPase inhibition)
T1 construct: His tag; made in house; host or cells: E. coli BL21-Gold (DE3)
T1 sequence (Q9NYA1 whole entry): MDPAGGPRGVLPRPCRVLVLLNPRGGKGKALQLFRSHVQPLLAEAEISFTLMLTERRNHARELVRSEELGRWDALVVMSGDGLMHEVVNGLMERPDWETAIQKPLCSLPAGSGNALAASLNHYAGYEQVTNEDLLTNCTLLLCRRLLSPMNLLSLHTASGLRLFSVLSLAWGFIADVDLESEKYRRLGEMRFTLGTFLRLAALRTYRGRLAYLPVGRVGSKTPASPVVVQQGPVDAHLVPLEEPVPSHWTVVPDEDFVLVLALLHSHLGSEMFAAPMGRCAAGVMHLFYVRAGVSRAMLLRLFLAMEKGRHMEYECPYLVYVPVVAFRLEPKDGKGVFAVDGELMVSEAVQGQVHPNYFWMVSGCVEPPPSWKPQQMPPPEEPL
Experimental: ATPase activity of purified SphK1 was checked by malachite green-based (BIOMOL® Green reagent, Enzo Life sciences) microtitre-plate assay. Fixed (2 µM) amount of protein was incubated with assay buffer (20 mM Tris-HCl, pH 8.0 and 100 mM NaCl) containing 10 mM MgCl2 and increasing concentrations of ATP for 30 minutes at 25 °C. The reaction was terminated by the addition of malachite green reagent followed by incubation for 20 minutes for colour development. The absorbance of each well was measured at 620 nm on a multiplate ELISA reader. Standard phosphate curve was prepared as described by manufacturer’s protocol and used to quantity the amount of free inorganic released from ATP by kinase activity. Thereafter, ATPase inhibition assay for SphK1 was performed in the presence of compounds. Firstly, Protein (2 µM) was pre-incubated with increasing concentrations of ligand at room temperature for 60 minutes in 96-well plate. 10 mM MgCl2 and 150 µM freshly prepared ATP was then added to the reaction mixture and incubated for 30 minutes at 25 °C. To terminate the reaction, BIOMOL® reagent was added and incubated for 20 minutes followed by absorbance measurement at 620 nm. The amount of free inorganic released was determined with the help of standard phosphate curve as described. All the measurements were performed in triplicates.

SphK1 [2] = target: T1, SphK1; assay: Fluorescence binding studies (Trp quenching, modified Stern-Volmer); settings: for Binding constant Ka: fluorescence quenching, 25 °C, 4 µM SphK1; for Kd: from fluorescence binding constant, read-out: Dissociation constant KD
Experimental: Fluorescence quenching experiments were carried out on Jasco spectroflourimeter (FP-6200) using 5 mm quartz cuvette. The temperature was maintained at 25 ± 0.1 °C by external thermostated peltier device. Stock solution of ligands was prepared in DMSO and diluted to a working concentration of 50 µM in Tris buffer just prior to taking measurements. Protein solution (4 µM) was titrated with increasing concentrations of ligand and the fluorescence emission spectrum was recorded in the range of 300–400 nm by keeping the excitation wavelength constant at 280 nm. The excitation and emission slit widths were kept at 10 nm. The final spectra were obtained by subtracting with the corresponding blank. For data analysis, fluorescence intensity at λmax was plotted against [ligand, μM] and then modified Stern-Volmer equation (Eq. 1) was used to derive binding parameters viz., binding constant (Ka) and number of binding sites (n) per molecule of protein for ligand-SphK1 system.1 log(F0−F/F)=logKa+nlog[Q]
To validate our docking results, the binding affinity of selected natural compounds with SphK1 was calculated using fluorescence measurements. A number of molecular interactions, including formation of an excited charge-transfer complex, intersystem crossing to the triplet state, molecular rearrangements, and ground-state complex formation between the fluorophore and quencher can lead fluorescence quenching. […] 4 µM of SphK1 was titrated by the successive addition of selected natural compounds from a 1.0 mM stock solution of ligands. The intrinsic fluorescence spectra were then collected in the range of 300–400 nm by keeping the excitation wavelength at 280 nm. The concentration of ligands was varied from 0 to 50 µM to obtain the saturation point.

SphK1 [3] = target: T1, SphK1; assay: Isothermal titration calorimetry; assay type: binding
Experimental: Binding affinity of SphK1 to quercetin was determined by using VP-ITC microcalorimeter from MicroCal, Inc (GE, MicroCal, USA). Protein sample was prepared by extensively dialyzing it against Tris buffer (20 mM Tris-HCl, pH 8.0 and 100 mM NaCl). Stock solution of compound was diluted in the last dialyzing buffer to avoid any baseline error. Equal amount of DMSO (1.0% v/v) was added to the protein solution to prevent signal stability problems during ITC measurements. 15 µM SphK1, which was kept in the sample cell with an effective volume of 2 ml, was titrated with 750 µM of compound filled in the titration calorimetry syringe. A programmed titration was performed with a first false injection of 2 µl followed by 24 successive injections of 10 µl ligand each at 300 seconds interval. The temperature of the sample and reference cell was isothermally maintained at 25 °C, and the syringe was stirred at 307 rpm during the experiment. Heat of dilution of compound into buffer solution (no protein) was also measured and subtracted from the protein’s titration data. The binding isotherm obtained was fitted with in-built origin ‘binding site’ model to derive the thermodynamic parameters viz., stoichiometry of binding (n), enthalpy change (ΔH) and association constant (Ka).

HepG2 cells = assay: Anti-proliferative potential on liver cancer line; assay type: cell-based; settings: Homo sapiens, data not shown, read-out: IC50, growth inhibition of cancer cells
A549 cells = assay: Anti-proliferative potential on lung cancer line; assay type: cell-based; settings: Homo sapiens, data not shown, read-out: IC50, growth inhibition of cancer cells
[4] = ITC, 25 °C, single binding site model
[5] = ITC, 25 °C, sequential binding, site 1
[6] = ITC, 25 °C, sequential binding, site 2
[7] = ITC, 25 °C, sequential binding, site 3

IC50 (SphK1 [1]): ~27 µM and 27 µM
Binding constant Ka (SphK1 [2]): 15300 M⁻¹
Kd (SphK1 [2]): 65.4 µM
Association constant Ka (SphK1 [3]; [4]): 102000 ± 66200 M⁻¹
Enthalpy Change ΔH (SphK1 [3]; [4]): −1.00 × 10^4 ± 727.6 cal/mol
ΔS (SphK1 [3]; [4]): −10.8 cal/mol/deg
Kd (SphK1 [3]; ITC, 25 °C, single binding site model, read-out: Dissociation Constant KD): 9.8 µM
Structure (SMILES): COc1cc(CNC(=O)CCCC/C=C/C(C)C)ccc1O [Capsaicin, capsaicin]

Structure (SMILES): O=c1c(O)c(-c2ccc(O)c(O)c2)oc2cc(O)cc(O)c12 [Quercetin, quercetin]
IC50 (SphK1 [1]): ~2.8 µM
Binding constant Ka (SphK1 [2]): 438000 M⁻¹
Kd (SphK1 [2]): 2.28 µM
IC50 (HepG2 cells): 49.1 µM
IC50 (A549 cells): 55.9 µM
Kd (SphK1 [3]): 125 µM
Association constant Ka1 (SphK1 [3]; [5]): Ka1 = 5.89 × 10^4 ± 5.0 × 10^3 M^−1
Enthalpy Change ΔH1 (SphK1 [3]; [5]): ΔH1 = −5204 ± 435 cal/mol
ΔS1 (SphK1 [3]; [5]): ΔS1 = 4.37 cal/mol/deg
Kd (SphK1 [3]; ITC, 25 °C, sequential binding, site 1, read-out: Dissociation Constant KD1): 16.9 µM
Association constant Ka2 (SphK1 [3]; [6]): Ka2 = 2.36 × 10^5 ± 8.0 × 10^3 M^−1
Enthalpy Change ΔH2 (SphK1 [3]; [6]): ΔH2 = −9883 ± 696 cal/mol
ΔS2 (SphK1 [3]; [6]): ΔS2 = −8.57 cal/mol/deg
Kd (SphK1 [3]; ITC, 25 °C, sequential binding, site 2, read-out: Dissociation Constant KD2): 4.2 µM
Association constant Ka3 (SphK1 [3]; [7]): Ka3 = 1.06 × 10^4 ± 4.0 × 10^2 M^−1
Enthalpy Change ΔH3 (SphK1 [3]; [7]): ΔH3 = 3829 ± 2.18 × 10^3 cal/mol
ΔS3 (SphK1 [3]; [7]): ΔS3 = 32.3 cal/mol/deg
Kd (SphK1 [3]; ITC, 25 °C, sequential binding, site 3, read-out: Dissociation Constant KD3): 94.3 µM
ΔS4 (SphK1 [3]; ITC, 25 °C, sequential binding, site 4): ΔS4 = −294 cal/mol/deg
Kd (SphK1 [3]; ITC, 25 °C, sequential binding, site 4, read-out: Dissociation Constant KD4): 10.7 µM
Toxicity towards normal counterparts (HEK293 cells): did not impart any toxicity

From paper PMC6904568, “Evaluation of binding and inhibition mechanism of dietary phytochemicals with sphingosine kinase 1: Towards targeted anticancer therapy” (Scientific Reports, 2019)
